The subject of one data set is mouse P-gp. Kind of data set: Transcellular P-gp assay (mouse P-gp). In kind it is in vitro ADME. The following applies: LLC-PK1, first value of cell, transfected LLC-PK cells; for efflux ratio: read-out: Apical Efflux Ratio; for Papp: read-out: Permeability. An excerpt:
(§1) The general assay uses transfected LLC-PKT cells (porcine kidney epithelial cells) over-expressing human or mouse P-gp, cultured on 96 well semi-permeable filter membrane plates, where they form a polarized monolayer with tight junctions, and act as a barrier between the apical and basolateral compartment.
(§2) P-gp is expressed in the apical-facing membrane of the monolayer.
(§3) The tightness of the cell monolayer and functional activity of P-gp are confirmed by addition of a cell-impermeable marker, Lucifer yellow, and a reference P-gp substrate, edoxaban, respectively.

The target in another data set is T1, human P-gp (Homo sapiens, UniProt P08183).
T1 construct: expressed in transfected cells; host or cells: LLC-PKT (so in the source) porcine kidney epithelial cells
The data set can be described thus: Transcellular P-gp assay (human P-gp). The data set is classed as in vitro ADME. The following applies: LLC-PK1, second value of cell, transfected LLC-PK cells; for efflux ratio: read-out: Apical Efflux Ratio; for Papp: read-out: Permeability.
Excerpt: as §1, §2, §3

Data set [1] has as its target T2, hERG cardiac potassium channel (Homo sapiens, UniProt Q12809).
T2 construct: Evotec (cryopreserved cells) ATCC PTA-6812; host or cells: CHO crelox hERG cell line (Chinese hamster)
Kind of data set: hERG screening assay (automated patch clamp). Conditions: CHO crelox hERG cells, whole-cell patch clamp, 35-37° C. The data set is classed as cell-based. An excerpt: In the drug development process of small molecules, one of the most frequent adverse side effects, leading to the failure of drugs, is the cardiac arrhythmias. Such failure is often related to the capacity of the drug to inhibit the human ether-a-go-go-related gene (hERG) cardiac potassium channel. Having no or low inhibition of the hERG cardiac potassium channel is therefore considered as beneficial.
The CHO crelox hERG cell line (ATCC reference Nr. PTA-6812, female Chinese hamster cells) was generated and validated at Roche. Ready-to-use frozen instant CHO-hERG cells were cryopreserved at Evotec (Germany) and used directly in the experiments.
The extracellular solution contains (in mM): NaCl 150; KCl 4; CaCl2 1; MgCl2 1; HEPES 10; pH 7.2-7.4 with NaOH, osmolarity 290-330 mOsm. […]
The effects of a compound on hERG K+-currents parameters will be evaluated at 2 concentrations in at least 4 cells.
The hERG test is performed using automated patch clamp system SynchroPatch® 384 (Nanion Technologies GmbH, Germany). K+ currents are measured with the patch-voltage-clamp technique in the whole-cell configuration at 35-37° C. […]
The amplitudes of IKhERG were recorded in each concentration of drug and they were compared to the vehicle control values (taken as 100%) to define fractional blocks. […]

T1 sequence (P08183 whole entry): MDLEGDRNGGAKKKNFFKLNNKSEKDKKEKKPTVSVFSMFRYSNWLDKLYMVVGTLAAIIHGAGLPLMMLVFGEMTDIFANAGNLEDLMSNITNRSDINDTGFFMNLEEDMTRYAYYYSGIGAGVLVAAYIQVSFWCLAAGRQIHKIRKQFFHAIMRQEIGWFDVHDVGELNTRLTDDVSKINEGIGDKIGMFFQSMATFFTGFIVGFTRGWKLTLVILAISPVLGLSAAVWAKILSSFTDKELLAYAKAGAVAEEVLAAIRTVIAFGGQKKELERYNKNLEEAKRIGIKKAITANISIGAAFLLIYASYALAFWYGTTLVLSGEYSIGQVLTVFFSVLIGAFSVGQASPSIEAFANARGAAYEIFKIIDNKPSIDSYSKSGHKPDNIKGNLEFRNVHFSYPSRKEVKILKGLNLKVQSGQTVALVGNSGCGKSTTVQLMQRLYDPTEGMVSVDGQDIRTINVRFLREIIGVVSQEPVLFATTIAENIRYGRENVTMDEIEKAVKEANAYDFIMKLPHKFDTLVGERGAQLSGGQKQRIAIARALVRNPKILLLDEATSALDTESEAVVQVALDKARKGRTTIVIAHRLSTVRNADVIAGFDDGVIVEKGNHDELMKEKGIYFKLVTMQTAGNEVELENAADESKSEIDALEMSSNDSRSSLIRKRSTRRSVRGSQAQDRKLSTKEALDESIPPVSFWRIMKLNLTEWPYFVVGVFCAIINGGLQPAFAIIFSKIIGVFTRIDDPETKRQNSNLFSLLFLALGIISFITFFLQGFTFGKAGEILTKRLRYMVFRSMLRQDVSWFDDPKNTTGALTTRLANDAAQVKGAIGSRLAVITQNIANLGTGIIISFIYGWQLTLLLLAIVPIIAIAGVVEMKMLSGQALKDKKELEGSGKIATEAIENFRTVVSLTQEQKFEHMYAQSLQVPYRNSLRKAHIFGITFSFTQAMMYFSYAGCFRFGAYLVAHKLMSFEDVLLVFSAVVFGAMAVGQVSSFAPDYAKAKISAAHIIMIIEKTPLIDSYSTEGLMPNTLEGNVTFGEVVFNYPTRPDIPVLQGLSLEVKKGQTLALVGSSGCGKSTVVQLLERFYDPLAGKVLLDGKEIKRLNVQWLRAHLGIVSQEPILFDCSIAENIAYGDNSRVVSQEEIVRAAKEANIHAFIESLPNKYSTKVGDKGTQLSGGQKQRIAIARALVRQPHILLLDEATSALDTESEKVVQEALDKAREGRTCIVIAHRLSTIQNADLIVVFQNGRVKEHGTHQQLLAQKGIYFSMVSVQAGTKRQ
T2 sequence (Q12809 whole entry): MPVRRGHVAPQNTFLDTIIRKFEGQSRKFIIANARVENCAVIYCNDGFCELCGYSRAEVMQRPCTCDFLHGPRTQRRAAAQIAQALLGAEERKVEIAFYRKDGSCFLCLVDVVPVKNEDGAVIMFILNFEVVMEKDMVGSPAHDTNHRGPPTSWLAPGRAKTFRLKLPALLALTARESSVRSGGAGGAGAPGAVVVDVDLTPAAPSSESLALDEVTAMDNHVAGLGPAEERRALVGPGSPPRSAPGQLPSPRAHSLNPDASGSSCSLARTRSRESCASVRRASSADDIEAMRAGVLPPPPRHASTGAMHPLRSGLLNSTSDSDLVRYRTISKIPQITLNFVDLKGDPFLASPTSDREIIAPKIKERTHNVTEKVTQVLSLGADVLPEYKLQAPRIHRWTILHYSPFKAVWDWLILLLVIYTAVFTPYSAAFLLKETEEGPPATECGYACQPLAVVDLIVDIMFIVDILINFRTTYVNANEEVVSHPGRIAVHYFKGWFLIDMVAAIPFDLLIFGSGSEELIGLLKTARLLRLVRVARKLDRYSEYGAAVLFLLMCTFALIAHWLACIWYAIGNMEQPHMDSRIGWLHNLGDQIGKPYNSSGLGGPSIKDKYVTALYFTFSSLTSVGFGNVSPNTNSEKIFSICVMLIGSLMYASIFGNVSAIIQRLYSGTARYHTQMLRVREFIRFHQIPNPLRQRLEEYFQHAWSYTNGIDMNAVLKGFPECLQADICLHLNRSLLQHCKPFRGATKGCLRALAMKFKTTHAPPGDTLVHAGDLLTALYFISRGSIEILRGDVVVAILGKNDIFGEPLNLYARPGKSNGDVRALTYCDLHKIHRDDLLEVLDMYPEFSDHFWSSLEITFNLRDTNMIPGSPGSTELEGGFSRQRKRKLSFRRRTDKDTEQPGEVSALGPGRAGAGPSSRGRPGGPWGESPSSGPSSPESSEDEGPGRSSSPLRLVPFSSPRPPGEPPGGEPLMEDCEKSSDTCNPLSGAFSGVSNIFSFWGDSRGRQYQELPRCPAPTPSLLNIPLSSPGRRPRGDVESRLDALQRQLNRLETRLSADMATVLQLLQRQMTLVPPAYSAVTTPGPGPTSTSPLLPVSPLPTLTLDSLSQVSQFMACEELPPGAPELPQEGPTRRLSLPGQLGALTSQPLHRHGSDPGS

Take `Cn1c(-c2ccc3c(c2O)CCO3)nnc(N[C@@H]2CCCN(CCO)C2)c1=O` [Example 1, 3-(4-Hydroxy-2,3-dihydrobenzofuran-5-yl)-6-[[(3R)-1-(2-hydroxyethyl)-3-piperidyl]amino]-4-methyl-1,2,4-triazin-5-one]: the results for the efflux ratio with mouse P-gp and on human P-gp were 8.6 and 4.8, respectively. Further, the Papp with mouse P-gp and at human P-gp was 4.7 ×10⁻⁶ cm/s throughout. Also, the IC20 in data set [1] is more than 10 µM.
As to `Cn1c(-c2ccc3c(c2O)CCC3)nnc(N[C@@H]2CCCN(CCO)C2)c1=O` [Example 2, 6-[[(3R)-1-(2-Hydroxyethyl)-3-piperidyl]amino]-3-(4-hydroxyindan-5-yl)-4-methyl-1,2,4-triazin-5-one], in the data set on mouse P-gp, the efflux ratio came out at 10 and the Papp stood at 17 ×10⁻⁶ cm/s. Besides, on human P-gp, the efflux ratio was determined as 4.8 and the Papp stood at 19 ×10⁻⁶ cm/s. In data set [1], this molecule yielded an IC20 of more than 10 µM.
As for `CCN1CCC[C@@H](Nc2nnc(-c3ccc4c(c3O)CCO4)n(C)c2=O)C1` [RE-A, 6-[[(3R)-1-Ethyl-3-piperidyl]amino]-3-(4-hydroxy-2,3-dihydrobenzofuran-5-yl)-4-methyl-1,2,4-triazin-5-one, reference compound], the figures for the efflux ratio in the data set on mouse P-gp and at human P-gp were 2 and 1.2, respectively. The Papp with mouse P-gp amounted to 23.2 ×10⁻⁶ cm/s; at human P-gp, 25 ×10⁻⁶ cm/s.

The values above are taken from US20260109689A1, “NOVEL COMPOUNDS” (Hoffmann-La Roche Inc., priority 2023, published 2026).
